Our source for the GI50 and TGI values is PubChem BioAssay (NCI).

Several values for one entry are separate records, joined by “and”; a condition that tells them apart may be missing. Equal values may be shown once.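 1) Cells in 96-well plates. 2) Compound, 48 h, 5 concentrations. 3) Linear interpolation between surrounding doses. 4) Unreached endpoint = highest concentration. GI50 is the concentration that inhibits growth by half. TGI marks complete inhibition of growth.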 Some results are limits rather than exact numbers.

Assay in all cases: inhibition of tumour cell growth, NCI panel, 48 h
The test system of test [1] is A549 NSCLC.
Test [2] relates to ACHN renal.
For test [3], the system named is BT-549 breast.
The subject of test [4] is HL-60(TB) leukemia.
The test system of test [5] is KM12 colon.
For test [6], the system named is MDA-MB-231 breast.
Test [7] deals with NCI-H522 lung.
In test [8] the test system is RXF 393 renal.
In test [9] the test system is SF-295 CNS.
Test [10] has as its system SR leukemia.

Take `CC12OC(C(=O)C13CC3)C1C(=O)c3cccc(O)c3C(=O)C12` (centres undefined): the GI50 was 28.7 µM in [1]; 2.95 µM in test [2]; 19.1 µM in [3]; 13.8 µM in test [5]; 2.43 µM in test [6]; 8.84 µM in [7]. Further, the GI50 was 1.43 µM in test [8] and 2.68 µM in [9]. Besides, the TGI was greater than 100 µM in test [1]; greater than 39.1 µM in test [2]; 58.1 µM in test [3]; 0.539 µM in [4]; 38.1 µM in [5]; 16.3 µM in [6]. The TGI is greater than 76.9 µM in test [7], 9.3 µM in test [8] and 22.6 µM in [9].

In the case of `COc1cc2cc(Oc3ccc(NC(=O)Nc4ccc(F)c(C(F)(F)F)c4)cc3)c(C)nc2cc1OCCN1CCOCC1`, the GI50 is 2.57 µM in [1]; 2.3 µM in [2]; 2.44 µM in test [3]; 2.38 µM in test [4]; 2.69 µM in [5]; 2.83 µM in test [6]. Moreover, the results for the GI50 in [7], in test [8] and in test [9] were 2.04 µM, 1.78 µM and 1.35 µM, respectively. The TGI in [1] turned out to be 34.3 µM; in [2] it was 11.4 µM; in [3], 8.46 µM; in test [4], 6.14 µM; in test [5], 10.6 µM; in test [6] it was 9.02 µM. Also, the results for the TGI in [7], in [8] and in test [9] were 9.43 µM, 3.94 µM and 4.22 µM, respectively.

Turning to `N#CC1(C#N)C2C=CC(C3CC=CC32)C1(C#N)C#N` (centres undefined), the TGI in [1] is 21 µM; in test [2], 7.09 µM and 15.3 µM; in test [4], 2.87 µM; in [6] it was 17.2 µM; in test [7], 3.18 µM; in [8], 8.29 µM and 13.4 µM. Besides, the TGI in [9] was greater than 50 µM; in test [10], 7.12 µM and 17.6 µM. For the same molecule, the figures for the GI50 in [2] and in test [10] were 8.44 µM and 7.6 µM, respectively.

On to `Cc1ccc([I+]c2ccc(C)cc2)cc1`, for which the GI50 is 4.22 µM in test [1]; 14.9 µM in test [2]; 5.28 µM in test [3]; 4.27 µM in [5]; 25.1 µM in test [6]; 12.3 µM in test [7]. For the same molecule, the GI50 in test [8] is 36.6 µM; in test [9], 1.86 µM. Besides, the TGI in test [1] was greater than 100 µM; in test [2], greater than 100 µM; in [3], 75.7 µM; in [5] it was 52.2 µM; in [6] it was greater than 100 µM; in test [7] it was greater than 100 µM. Further, the TGI is greater than 100 µM in test [8] and 8.74 µM in test [9].

For the molecule `COC(=O)CCC(=O)C(CC(=O)OC)C(=O)CCC(=O)NCCc1ccccc1` (centres undefined), the TGI in test [1], in [2], in [4], in test [5], in [7] and in test [8] was greater than 100 µM each time. The TGI in [9] and in test [10] was greater than 100 µM throughout.

Take `O=C(O)c1cc(C(=O)C(=O)c2cc(C(=O)O)c(O)c3ccccc23)c2ccccc2c1O`: the TGI in test [1], in [2], in test [3], in [5], in [6] and in [7] was greater than 100 µM in each case. For the same molecule, the TGI in test [8] and in test [9] was greater than 100 µM throughout.

For `Fc1ccc(-c2nn3c(COc4ccccc4Cl)nnc3s2)cc1Oc1ccccc1`, the GI50 is 40.2 µM in test [1]; 25 µM in test [2]; 41.1 µM in [3]; 43.1 µM in test [5]; 17.8 µM in [6]; 29.6 µM in [7]. In addition, the GI50 in test [8] was greater than 100 µM; in test [9] it was 18.9 µM. The TGI in test [1] is greater than 100 µM; in test [2] it was 65.3 µM; in test [3] it was greater than 100 µM; in test [5], greater than 100 µM; in [6], 45.6 µM; in test [7] it was greater than 100 µM. For the same molecule, the TGI is greater than 100 µM in test [8] and 50.9 µM in test [9].

On to `CC1=CC=C2C(C)(C)CC[C@@H]3OC(=O)[C@H]1[C@]23C`, for which the TGI in test [1], in [2], in test [4], in [5], in [7] and in test [8] was greater than 100 µM throughout. Moreover, the TGI in test [9] and in [10] was greater than 100 µM throughout.

As to `N#CCC(=O)N/N=C(/C(=O)Nc1ccccc1)C1C(=O)N(c2ccccc2)N=C1N` (centres undefined), the TGI in [1], in test [2], in [4], in [5], in test [7] and in test [8] was greater than 100 µM in each case. Further, the TGI in [9] and in test [10] was greater than 100 µM throughout.
